# Assay results as given in ChEMBL document CHEMBL1128530, “Alpha- and beta-adrenoceptors: from the gene to the clinic. 1. Molecular biology and adrenoceptor subclassification” (J Med Chem, 1995).
# What was measured:
# [1] = biological target: T1, Alpha-2A adrenergic receptor (Homo sapiens, UniProt P08913); assay: Binding affinity against Alpha-2A adrenergic receptor, from human clones.
# T1 sequence (P08913 whole entry): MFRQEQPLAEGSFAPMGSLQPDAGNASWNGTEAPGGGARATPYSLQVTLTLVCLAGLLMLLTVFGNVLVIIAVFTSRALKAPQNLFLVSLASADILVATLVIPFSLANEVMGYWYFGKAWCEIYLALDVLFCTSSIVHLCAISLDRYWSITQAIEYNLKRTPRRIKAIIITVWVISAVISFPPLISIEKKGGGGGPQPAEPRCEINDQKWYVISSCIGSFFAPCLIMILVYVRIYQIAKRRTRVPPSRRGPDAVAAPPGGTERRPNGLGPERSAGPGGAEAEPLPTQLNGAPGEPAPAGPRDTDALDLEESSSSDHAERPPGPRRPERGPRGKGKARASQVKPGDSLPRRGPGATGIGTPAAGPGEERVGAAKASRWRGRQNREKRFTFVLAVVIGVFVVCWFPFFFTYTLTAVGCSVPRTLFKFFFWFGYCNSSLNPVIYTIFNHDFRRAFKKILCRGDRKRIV
# [2] = biological target: T2, Alpha-1A adrenergic receptor (Bos taurus, UniProt P18130); assay: Binding affinity against Alpha-1A adrenergic receptor from bovine clone
# T2 sequence (P18130 whole entry): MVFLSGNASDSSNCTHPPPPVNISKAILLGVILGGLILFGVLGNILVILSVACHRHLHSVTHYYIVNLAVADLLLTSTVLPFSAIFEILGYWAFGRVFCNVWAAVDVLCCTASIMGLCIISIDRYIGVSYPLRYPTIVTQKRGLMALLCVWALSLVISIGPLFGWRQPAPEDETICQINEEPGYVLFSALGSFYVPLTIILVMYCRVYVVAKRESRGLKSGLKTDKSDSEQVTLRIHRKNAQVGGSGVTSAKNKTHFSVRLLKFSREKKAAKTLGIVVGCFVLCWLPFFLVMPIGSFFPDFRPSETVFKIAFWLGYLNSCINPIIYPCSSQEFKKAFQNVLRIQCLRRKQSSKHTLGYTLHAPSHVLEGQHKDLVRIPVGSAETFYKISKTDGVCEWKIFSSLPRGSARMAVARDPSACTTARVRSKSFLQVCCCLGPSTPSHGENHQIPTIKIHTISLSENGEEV
smiles,measurement,setting,value
COc1cccc(OC)c1OCCNCC1COc2ccccc2O1 (configuration not stated),Ki,[1],3.5 nM
same,Ki,[2],0.35 nM
